For this test, the system named is CD8F1 mice, subcutaneous mammary adenocarcinoma, T/C%. The experiment in a line: NCI In Vivo Anticancer Drug Screen. Data for tumor model Mammary Adenocarcinoma CD8F1 (subcutaneous) in CD8F1. The following applies: higher = larger tumour. The essentials:
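Antitumor activity is assessed in transplantable-tumor mice by comparing the treated group with a vehicle-treated control group. Survival or tumor size serves as the measure, reported as T divided by C.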

Setting [1] is: endpoint: median tumor weight (est.), dose: 1.0 mg/kg/injection, schedule: Q07DX005 (ip), vehicle: saline.
[2] abbreviates: endpoint: median tumor weight (est.), dose: 2.0 mg/kg/injection, schedule: Q07DX005 (ip), vehicle: saline.
Where [3] appears, read: endpoint: median tumor weight (est.), dose: 4.0 mg/kg/injection, schedule: Q07DX005 (ip), vehicle: saline.
The mark [4] stands for this setting: endpoint: median tumor weight (est.), dose: 8.0 mg/kg/injection, schedule: Q07DX005 (ip), vehicle: saline.
Where [5] appears, read: endpoint: median tumor weight (est.), dose: 50.0 mg/kg/injection, schedule: Q07DX005 (ip), vehicle: saline with Tween-80.
[6] abbreviates: endpoint: median tumor weight (est.), dose: 100.0 mg/kg/injection, schedule: Q07DX005 (ip), vehicle: saline with Tween-80.
The mark [7] stands for this setting: endpoint: median tumor weight (est.), dose: 200.0 mg/kg/injection, schedule: Q07DX005 (ip), vehicle: saline with Tween-80.
[8] abbreviates: endpoint: median tumor weight (est.), dose: 12.5 mg/kg/injection, schedule: Q07DX005 (ip), vehicle: saline with Tween-80.
[9] abbreviates: endpoint: median tumor weight (est.), dose: 25.0 mg/kg/injection, schedule: Q07DX005 (ip), vehicle: saline with Tween-80.

Values joined by “and” are separate entries in the source; they are usually repeats but may differ in a detail not shown here. Equal entries are not always repeated. Inconclusive results are not listed.

Consider `Nc1ncn(C2OC(CO)C(O)C2O)c(=O)n1` (stereo not drawn), for which the T/C runs as follows: (endpoint: mean tumor weight (est.), dose: 2.0 mg/kg/injection, schedule: Q07DX003 (ip), vehicle: other) 58 % of control; (endpoint: mean tumor weight (est.), dose: 8.0 mg/kg/injection, schedule: Q07DX003 (ip), vehicle: other) 32 % of control; under setting [1], 63 % of control; under setting [2], 81 % of control; under setting [3], 22 % of control; under setting [4], 20 % of control. The T/C reads like this: (endpoint: median tumor weight (est.), dose: 8.0 mg/kg/injection, schedule: Q07DX005 (ip), vehicle: suspension in saline) 22 % of control; (endpoint: median tumor weight (est.), dose: 16.0 mg/kg/injection, schedule: Q07DX005 (ip), vehicle: saline) 3 % of control; (endpoint: median tumor weight (est.), dose: 16.0 mg/kg/injection, schedule: Q07DX005 (ip), vehicle: suspension in saline) 2 % of control; (endpoint: median tumor weight change, dose: 3.75 mg/kg/injection, schedule: Q01DX001 (ip), vehicle: saline) 89 % of control; (endpoint: median tumor weight change, dose: 7.5 mg/kg/injection, schedule: Q01DX001 (ip), vehicle: saline) 45 % of control; (endpoint: median tumor weight change, dose: 15.0 mg/kg/injection, schedule: Q01DX001 (ip), vehicle: saline) 38 % of control. Besides, the T/C by setting is: (endpoint: median tumor weight change, dose: 30.0 mg/kg/injection, schedule: Q01DX001 (ip), vehicle: saline) 36 % of control; (endpoint: median tumor weight change, dose: 62.5 mg/kg/injection, schedule: Q01DX001 (ip), vehicle: saline) 123 % of control; (endpoint: median tumor weight change, dose: 125.0 mg/kg/injection, schedule: Q01DX001 (ip), vehicle: saline) 103 % of control; (endpoint: median tumor weight change, dose: 135.0 mg/kg/injection, schedule: Q01DX001 (ip), vehicle: saline) 44 % of control; (endpoint: median tumor weight change, dose: 250.0 mg/kg/injection, schedule: Q01DX001 (ip), vehicle: saline) 86 % of control; (endpoint: median tumor weight change, dose: 500.0 mg/kg/injection, schedule: Q01DX001 (ip), vehicle: saline) 106 % of control. Besides, the T/C runs as follows: (endpoint: median tumor weight change, dose: 600.0 mg/kg/injection, schedule: Q01DX001 (ip), vehicle: suspension in saline) 17 % of control; (endpoint: median tumor weight change, dose: 1000.0 mg/kg/injection, schedule: Q01DX001 (ip), vehicle: saline) 103 % of control; (endpoint: median tumor weight change, dose: 1350.0 mg/kg/injection, schedule: Q01DX001 (ip), vehicle: suspension in saline) -11 % of control; (endpoint: median tumor weight change, dose: 1800.0 mg/kg/injection, schedule: Q01DX001 (ip), vehicle: suspension in saline) 60 % of control; (endpoint: median tumor weight change, dose: 2025.0 mg/kg/injection, schedule: Q01DX001 (ip), vehicle: suspension in saline) 16 % of control; (endpoint: median tumor weight change, dose: 3600.0 mg/kg/injection, schedule: Q01DX001 (ip), vehicle: suspension in saline) 43 % of control.

Turning to `OC(C1CO1)C(O)C1CO1` (stereo not drawn), the T/C is 49 % of control (endpoint: median tumor weight (est.), dose: 0.5 mg/kg/injection, schedule: Q07DX005 (ip), vehicle: saline); 28 % of control under setting [1]; 37 % of control under setting [2]; 13 % of control under setting [3]; 5 % of control under setting [4].

On to `COC1/C=C/C=C(/C)Cc2cc(O)c(Cl)c(c2)N(C)C(=O)CC(OC(=O)C(C)C)C2(C)OC2C(C)C2CC1(O)NC(=O)O2` (stereo not drawn), for which the T/C is 49 % of control (endpoint: median tumor weight change, dose: 0.62 mg/kg/injection, schedule: Q01DX001 (ip), vehicle: saline + alcohol); 34 % of control and 54 % of control (endpoint: median tumor weight change, dose: 1.25 mg/kg/injection, schedule: Q01DX001 (ip), vehicle: saline + alcohol); 50 % of control and 70 % of control (endpoint: median tumor weight change, dose: 2.5 mg/kg/injection, schedule: Q01DX001 (ip), vehicle: saline + alcohol); 54 % of control and 55 % of control (endpoint: median tumor weight change, dose: 5.0 mg/kg/injection, schedule: Q01DX001 (ip), vehicle: saline + alcohol); 35 % of control and 60 % of control (endpoint: median tumor weight change, dose: 10.0 mg/kg/injection, schedule: Q01DX001 (ip), vehicle: saline + alcohol); 48 % of control (endpoint: median tumor weight change, dose: 20.0 mg/kg/injection, schedule: Q01DX001 (ip), vehicle: saline + alcohol).

As to `CC(=O)OC1(C)CC(C)C(=O)C(C(O)CC2CC(=O)NC(=O)C2)C1` (stereo not drawn), the T/C was 57 % of control (endpoint: median tumor weight (est.), dose: 94.0 micrograms/kg/injection, schedule: Q07DX005 (ip), vehicle: saline); 34 % of control (endpoint: median tumor weight (est.), dose: 188.0 micrograms/kg/injection, schedule: Q07DX005 (ip), vehicle: saline); 37 % of control (endpoint: median tumor weight (est.), dose: 375.0 micrograms/kg/injection, schedule: Q07DX005 (ip), vehicle: saline); 32 % of control (endpoint: median tumor weight (est.), dose: 750.0 micrograms/kg/injection, schedule: Q07DX005 (ip), vehicle: saline).

As for `c1cc[c]([Sn]([NH]c2ncnc3[nH]cnc23)([NH]c2ncnc3[nH]cnc23)[c]2ccccc2)cc1`, the T/C reads like this: (endpoint: median tumor weight change, dose: 125.0 mg/kg/injection, schedule: Q01DX001 (ip), vehicle: suspension in saline) 101 % of control; (endpoint: median tumor weight change, dose: 250.0 mg/kg/injection, schedule: Q01DX001 (ip), vehicle: suspension in saline) 61 % of control; (endpoint: median tumor weight change, dose: 500.0 mg/kg/injection, schedule: Q01DX001 (ip), vehicle: suspension in saline) 41 % of control; (endpoint: median tumor weight change, dose: 1000.0 mg/kg/injection, schedule: Q01DX001 (ip), vehicle: suspension in saline) 42 % of control.

For `COc1cc2cc(c1Cl)N(C)C(=O)CC(OC(=O)C(C)C)C1(C)OC1C(C)C1CC(O)(NC(=O)O1)C(OC)/C=C/C=C(C)C2` (stereo not drawn), the T/C was 79 % of control (endpoint: median tumor weight (est.), dose: 9.3 micrograms/kg/injection, schedule: Q07DX005 (ip), vehicle: saline + alcohol); 103 % of control (endpoint: median tumor weight (est.), dose: 18.7 micrograms/kg/injection, schedule: Q07DX005 (ip), vehicle: saline + alcohol); 89 % of control (endpoint: median tumor weight (est.), dose: 75.0 micrograms/kg/injection, schedule: Q07DX005 (ip), vehicle: saline + alcohol); 45 % of control (endpoint: median tumor weight (est.), dose: 150.0 micrograms/kg/injection, schedule: Q07DX005 (ip), vehicle: saline + alcohol).

Turning to `CC(O)CCC(=O)c1ccoc1` (stereo not drawn), the T/C runs as follows: (endpoint: median tumor weight change, dose: 3.32 mg/kg/injection, schedule: Q03HX003 (ip), vehicle: saline) 89 % of control; (endpoint: median tumor weight change, dose: 6.65 mg/kg/injection, schedule: Q03HX003 (ip), vehicle: saline) 101 % of control.

Consider `Cc1ccccc1SSc1ccccc1C`, for which the T/C is, setting by setting: under setting [5], 159 % of control; under setting [6], 123 % of control; under setting [7], 179 % of control.

As to `COc1ccc(S(=O)(=O)N/N=C/C(=O)O)cc1`, the T/C reads like this: (endpoint: median tumor weight (est.), dose: 6.25 mg/kg/injection, schedule: Q07DX005 (ip), vehicle: saline with Tween-80) 55 % of control; under setting [8], 198 % of control; under setting [9], 73 % of control and 82 % of control; under setting [5], 206 % of control; under setting [7], 44 % of control and 61 % of control.

Consider `CCCCCCCCCCCCCCCCCCCCCC(=O)Nc1ccn(C2OC(CO)C(O)C2O)c(=O)n1` (stereo not drawn), for which the T/C is, setting by setting: under setting [8], 104 % of control; under setting [9], 68 % of control; under setting [5], 75 % of control; under setting [6], 69 % of control; under setting [7], 49 % of control; (endpoint: median tumor weight (est.), dose: 400.0 mg/kg/injection, schedule: Q07DX005 (ip), vehicle: saline with Tween-80) 53 % of control.

Regarding `N=C(N)Sc1ccccn1`, the T/C was 156 % of control (endpoint: median tumor weight (est.), dose: 12.5 mg/kg/injection, schedule: Q07DX005 (ip), vehicle: suspension in saline); 113 % of control (endpoint: median tumor weight (est.), dose: 25.0 mg/kg/injection, schedule: Q07DX005 (ip), vehicle: suspension in saline); 103 % of control (endpoint: median tumor weight (est.), dose: 50.0 mg/kg/injection, schedule: Q07DX005 (ip), vehicle: suspension in saline); 121 % of control (endpoint: median tumor weight (est.), dose: 400.0 mg/kg/injection, schedule: Q07DX005 (ip), vehicle: suspension in saline).

As for `Nc1ccccc1N`, the T/C by setting is: (endpoint: median tumor weight (est.), dose: 12.5 mg/kg/injection, schedule: Q07DX005 (ip), vehicle: Klucel (hydroxypropylcellulose) (HPC)) 117 % of control; (endpoint: median tumor weight (est.), dose: 25.0 mg/kg/injection, schedule: Q07DX005 (ip), vehicle: Klucel (hydroxypropylcellulose) (HPC)) 155 % of control; (endpoint: median tumor weight (est.), dose: 100.0 mg/kg/injection, schedule: Q07DX005 (ip), vehicle: Klucel (hydroxypropylcellulose) (HPC)) 122 % of control; (endpoint: median tumor weight (est.), dose: 400.0 mg/kg/injection, schedule: Q07DX005 (ip), vehicle: Klucel (hydroxypropylcellulose) (HPC)) 35 % of control.

`CC12C(=O)C=CCC1=CCC1C2CCC2(O)C(=O)OC3(C)C4CC5(C)C(COC16OC23C5C6=O)C(=O)O4` (stereo not drawn): the T/C reads like this: (endpoint: median tumor weight change, dose: 250.0 mg/kg/injection, schedule: Q01DX001 (ip), vehicle: Klucel (hydroxypropylcellulose) (HPC)) 96 % of control; (endpoint: median tumor weight change, dose: 500.0 mg/kg/injection, schedule: Q01DX001 (ip), vehicle: Klucel (hydroxypropylcellulose) (HPC)) 35 % of control.
